Experimental data from ChEMBL document CHEMBL3507680, “University of Dundee, Gates Library screen for HepG2 cell viability”.

Assay: Human HepG2 cell viability assay in 384 well format
Type: toxicity, cell-based
Design: dose 125 nL, time 70.5 hour; concentration not given beside the values
Conditions: HepG2 cells, read-out: Inhibition

Going from `CC(CNC1CCN(c2ccccn2)CC1)Oc1ccc(F)cc1` (centres undefined) to `CC(C)COCCNC1CCN(c2ccccn2)CC1`, the cytotoxicity at 70.5 h falls from 23.5% to 0.205%.

Compared with `CCOc1nnc(CN2CCN(CCOC)C(C)C2)s1` (centres undefined), `Cc1cc(C)nc(NC2CCN(CCOC(C)C)CC2)n1` is higher in cytotoxicity at 70.5 h: -7.83% for the first, 1.5% for the second.

First: Cn1cnc(S(=O)(=O)N2CCCc3cc(F)cc(F)c32)c1Cl
Second: Cn1cnc(S(=O)(=O)N2CCCc3cccc(F)c32)c1Cl
The cytotoxicity at 70.5 h of the first is higher: 10.5% for the first, -0.174% for the second.

First: CC(=O)Nc1ccc(CNCC(O)c2ccccc2)cc1 (centres undefined)
Second: CSc1ncccc1C(=O)Nc1ccc(Cn2ccccc2=O)cc1
The cytotoxicity at 70.5 h of the first is lower: -2.04% for the first, 18.3% for the second.

Going from `CCN(CC)c1ccc(CNC(=O)N2CCC(C#N)CC2)cc1` to `CCc1cnc(CNC(=O)NCCc2ccc(O)cc2)s1`, the cytotoxicity at 70.5 h rises from -14.6% to -1.61%.

Compared with `Cc1cc(CN(C)C(=O)C(c2ccccc2)N2CCSCC2)no1` (centres undefined), `Cc1cc(C)n(C2CN(CCC(=O)NCCc3ccccc3)C2)n1` is lower in cytotoxicity at 70.5 h: 8.49% for the first, -1.03% for the second.

Going from `CC(C)NC(=O)CCNC(=O)CCc1cc(Cl)cs1` to `CCc1cnc(CNC(=O)NCCCO)s1`, the cytotoxicity at 70.5 h rises from -8.99% to -3.22%.

First: N#Cc1cccc(NC(=O)N(CC(F)F)C2CC2)c1
Second: CC(C)CN(C(=O)Nc1cccnc1)C1CC1
The cytotoxicity at 70.5 h of the first is higher: -2.73% for the first, -7.03% for the second.

First: NS(=O)(=O)c1cnn(CC(=O)Nc2c(Cl)cccc2Cl)c1
Second: O=C(NCc1ccc(-n2cncn2)nc1)c1cc(Cl)ccn1
The cytotoxicity at 70.5 h of the first is lower: -5.76% for the first, 12.5% for the second.

Compared with `Cc1cc(OCCC(=O)Nc2cccc(F)c2)nnc1C`, `Cc1cc(OCCC(=O)NCc2ccc(F)cc2)nnc1C` is lower in cytotoxicity at 70.5 h: 8.29% for the first, 0.423% for the second.

Going from `Cc1nc(C)c(C(C)NCc2c(C)nn(CC(C)C)c2N(C)C)s1` (centres undefined) to `Cc1ccc(CN(C)C(=O)CNC(C)(C)c2noc(C(C)(C)C)n2)o1`, the cytotoxicity at 70.5 h rises from -3.31% to -0.348%.

Compared with `CS(=O)(=O)NCCCNC(=O)c1cnc(-c2ccsc2)s1`, `O=C(NCCCn1ccccc1=O)c1cnc(-c2ccsc2)s1` is lower in cytotoxicity at 70.5 h: -6.18% for the first, -11.3% for the second.

Compared with `Cc1cc(OCC(=O)NCc2ccc(F)cc2)nnc1C`, `Cc1cc(NC(=O)NCc2ccncc2)ccc1OC(C)C` is higher in cytotoxicity at 70.5 h: -6.01% for the first, -3.47% for the second.

First: COCC(O)CN(C)c1cc(C(F)(F)F)nc(-c2cccnc2)n1 (centres undefined)
Second: COc1ccc(CN(Cc2cccnc2)CC2CCCO2)c(OC)c1 (centres undefined)
The cytotoxicity at 70.5 h of the first is higher: -1.69% for the first, -5.79% for the second.

First: O=C(NCCc1cc(F)ccc1F)NC(CO)c1ccccc1 (centres undefined)
Second: O=C(NCC(O)Cc1ccccc1)c1ccc2[nH]c(=O)[nH]c2c1 (centres undefined)
The cytotoxicity at 70.5 h of the first is higher: 19.3% for the first, -6.14% for the second.

Going from `O=C(O)c1cc(/C=C/c2ccc3ccccc3c2)ncn1` to `O=C(NCC[S+]([O-])c1ccccc1)c1ccc2[nH]c(=O)[nH]c2c1` (centres undefined), the cytotoxicity at 70.5 h rises from -7.92% to -6.4%.

Compared with `CCC1CN(C)c2ccccc2CN1C(=O)CCn1cncn1` (centres undefined), `CCC1CN(C)c2ccccc2CN1CCn1cncn1` (centres undefined) is lower in cytotoxicity at 70.5 h: -7.82% for the first, -9.88% for the second.

First: O=C(Nc1cccnc1)N(Cc1ccccc1)C1CC1
Second: Cc1ncccc1C(=O)Nc1cccc(Cn2ccccc2=O)c1
The cytotoxicity at 70.5 h of the first is lower: -15.3% for the first, -7.74% for the second.

Going from `Cc1csc(C(C)(C)NCC(=O)N(C)Cc2ccc(C)o2)n1` to `CCCN(CC(=O)N(C)C)C(=O)c1ccc(-c2nc(C)cs2)cc1`, the cytotoxicity at 70.5 h falls from 4.78% to -6.25%.

First: COc1ncnc(N)c1CNCc1ccccc1-n1cccn1
Second: O=C(NCc1ccc(-n2cncn2)nc1)c1cnccn1
The cytotoxicity at 70.5 h of the first is lower: 6.74% for the first, 7.67% for the second.

Compared with `Cc1csc(N2CCN(Cc3ccccn3)CC2)n1`, `CC(O)CN1CCN(Cc2coc(-c3ccccc3Cl)n2)CC1` (centres undefined) is higher in cytotoxicity at 70.5 h: -9.56% for the first, -4.11% for the second.

Compared with `Cc1cccc(COc2ccc(C(C)NS(N)(=O)=O)cc2)c1` (centres undefined), `Cc1cccc(COc2ccc(C(C)N)cc2)c1` (centres undefined) is higher in cytotoxicity at 70.5 h: -8.27% for the first, -4.64% for the second.

Compared with `COc1ccc2c(c1)CCCN(CC(=O)NCC1CCCO1)C2` (centres undefined), `Cc1ccc(F)c2c1CCCN2CC(=O)NC1CCS(=O)(=O)C1` (centres undefined) is higher in cytotoxicity at 70.5 h: -5.84% for the first, -4.5% for the second.

First: CC(=O)N1CCC(NC(=O)CN2CCCc3c(C)ccc(F)c32)CC1
Second: CCc1nnc(C(C)N2CCC(NC(=O)C3CCCCC3)CC2)o1 (centres undefined)
The cytotoxicity at 70.5 h of the first is lower: -9.21% for the first, -7.39% for the second.

First: O=C(NCC[S+]([O-])Cc1ccccc1)c1ccc2[nH]c(=O)[nH]c2c1 (centres undefined)
Second: NC(=O)C1Cc2ccccc2CN1CCC(=O)N1CCc2ccccc21 (centres undefined)
The cytotoxicity at 70.5 h of the first is higher: -3.54% for the first, -6.41% for the second.

Going from `Cc1ccc(CNS(=O)(=O)CCCC#N)cc1F` to `COCCS(=O)(=O)NCc1ccc(N(C)C)c(C)c1`, the cytotoxicity at 70.5 h falls from -4.22% to -7.82%.

Compared with `Cc1cc(CNS(C)(=O)=O)ccc1N(C)C`, `CCc1c(C(=O)Nc2ccc(F)c(C(=O)NC)c2)cnn1CC(C)C` is higher in cytotoxicity at 70.5 h: -7.39% for the first, 0.0762% for the second.

Going from `O=C(C1CCOC1)N1CCN(CC2CC2)c2ccccc21` (centres undefined) to `O=C(C1CCOC1)N1CCN(CC(F)(F)F)c2ccccc21` (centres undefined), the cytotoxicity at 70.5 h rises from -6.39% to -5.62%.

Going from `Clc1ccccc1CN1CCc2nc(C3CCCCN3)ncc2C1` (centres undefined) to `O=C(CCC1CCCC1)NCCn1nc(C2CCNC2)c2nccnc21` (centres undefined), the cytotoxicity at 70.5 h rises from -18.6% to 34.9%.

`CN(C)c1ccc(CN(CCCn2ccnc2)Cc2c[nH]cn2)cc1` showed a cytotoxicity at 70.5 h of -13.5%.
